From patent publication US4652581A, “Tetrahydroindole derivative as medicament for cerebral apoplexy” (Grelan Pharmaceutical Co., Ltd., priority 1983, dated 1987)
Read-outs that look alike come from different tables or passages of the source.

What was measured:
[1] = tested on: hemorrhagic infarction (rat cerebral infarction model); test: Inhibition of hemorrhagic infarction in cerebral infarction model, ISI injection (Test Example 1A); format: in vivo, Sprague Dowley male rats; conditions: intraperitoneal
Experimental: (§1) (A) A cerebral infarction model was constructed by the following procedure. The bilateral common carotid arteries of Sprague Dowley male rats (body weights 300 to 350 g) in which one of the vertebral arteries was occluded by electrocauterization in accordance with the method of W. Pulsinelli et al (Stroke 10, 267, 1979) were uniformly occluded and made repatent, using clamps, at an interval of 1 hour for the first cycle and thereafter at 30-minute intervals for a total of 4 cycles.
After the final establishment of repatency in this test model and on the second day and onwards, 1 ml/100 g body weight of Glyceol ® Injection [a preparation containing 10 weight % of glycerol, the trademark of Chugai Pharmaceutical Co., Ltd., Japan] was intraperitoneally administered twice daily. The test drug ISI was dissolved in Glyceol ® Injection to a concentration of 0.08 weight % and administered in the same manner as Glyceol ® Injection.
In a disease model such as the one used in this experiment, death of animals occurs in many cases as an infarction leads to cerebral edema which compresses the brain stem. Therefore, for the purpose of preventing death due to this cause and ensuring a smooth performance of the experiment, the animals were treated with Glyceol ® Injection which has a relieving effect on cerebral edema.
The isolated brains were fixed in 10% formalin. […]

[2] = tested on: hemorrhagic infarction (rat cerebral infarction model); test: Inhibition of hemorrhagic infarction in cerebral infarction model, ISI orally administered (Test Example 1B); format: in vivo, Sprague Dowley male rats; conditions: oral, twice daily
Experimental: as §1
The isolated brains were fixed in 10% formalin. For the assessment of hemorrhagic infarction, paraffin-embedded specimens prepared from three different sections passing through the mid-point between the anterior portion of the frontal lobe and the optic chiasm, the optic chiasm and the posterior portion of the mamillary body were used after H.E. stain.
(B) In the system using the above-mentioned cerebral infarction model, 0.25 ml/100 g body weight of suspension of the test drug ISI in 5% sodium alginate was orally administrated (dose of ISI: 30 mg/kg). To control animals, 0.25 ml/100 g body weight of 5% sodium alginate was orally administered. The administration schedule was twice daily for both groups.
The brains submitted to the study were subjected to the same treatment as above, and assessments were made on paraffin-embedded specimens.

[3] = tested on: cerebral apoplexy (stroke-prone spontaneously hypertensive rats); test: Effect against cerebral apoplexy in NaCl-loaded stroke-prone spontaneously hypertensive rats (Test Example 2); format: in vivo
Text: Stroke-prone spontaneously hypertensive rats [K. Okamoto et al., Circulation Res. suppl. 34 & 35, 143 (1974)]of 10 weeks aged were fed, in conventional manner, with a 1 weight % aqueous solution of sodium chloride as drinking water [H. Ikeda et al., Europ. J. Pharmacol. 53, 173 (1979)]being employed.
Animals were subjected to periodical observation, three times a day, until the symptom of cerebral apoplexy was manifested in all the animals of the control group. The difference between the control group and the test group in the ranking of the symtoms of cerebral apoplexy manifested was subjected to rank sum test.
In the test group, each of the animals was orally treated every day with ISI dissolved in 1% gum-arabica solution so that the concentration may become 0.06 weight % at a dose of 0.5 ml/100 g body weight twice a day, starting with the sodium chloride loading. In the control group, each of the animals was treated with 1% gum-arabica solution at a dose of 0.5 ml/100 g body weight in a manner similar to that in the test group.
The animals in which the symptom of apoplexy was manifested, after being anesthetized, was treated with intravenous injection of 1% Evans Blue (dosage: 1 ml/kg). After sacrifice by bloodletting, hemorrhage and extravascular extravasation of the dye in the brain and the spinal cord was observed.
With paralysis of the limbs, stereotyped behaviour, an extreme loss of
those animals were counted as those suffering from C.A.: Excitement,
Hyperirritability, Depression, Epileptic symptom, Hemiplegia, Sudden

[4] = Acute toxicity (LD50 in mice); conditions: mouse, in vivo

## CC(C)N1CC(O)C2=CC(=NNC(N)=O)C(=O)C=C21 (centres unmarked) [ISI, 1-isopropyl-3-hydroxy-5-semicarbazono-6-oxo-2,3,5,6-tetrahydroindole]
[1]; 0.08% ISI in Glyceol injection, 1 ml/100 g, twice daily, up to 7 days, control (Glyceol injection) 6/20
  Number of cases of hemorrhagic infarction: 1/19
[1]; ISI in Glyceol injection vs control group
  inhibitory effect on hemorrhagic infarction (significance versus control): inhibitory effect on hemorrhagic infarction was obtained in the ISI group at the significance level of 5%
[2]; 30 mg/kg in 5% sodium alginate, control (sodium alginate) 18/43
  Number of cases of hemorrhagic infarction: 9/41
[2]; 30 mg/kg, vs control group
  inhibitory effect on cerebral infarction (significance versus control): inhibitory effect on cerebral infarction was obtained in the ISI group at the significance level of 5%
[3]; ISI 3.0 mg/kg, oral twice a day, total, days 20-42 after NaCl loading, control 10/10
  Number of animals suffering from C.A., Total: 5/10
[3]; ISI 3.0 mg/kg, 20 days after NaCl loading, control 0
  Number of animals suffering from C.A.: 1
[3]; ISI 3.0 mg/kg, 21 days after NaCl loading, control 1
  Number of animals suffering from C.A.: 0
[3]; ISI 3.0 mg/kg, 23 days after NaCl loading, control 1
  Number of animals suffering from C.A.: 0
[3]; ISI 3.0 mg/kg, 26 days after NaCl loading, control 1
  Number of animals suffering from C.A.: 0
[3]; ISI 3.0 mg/kg, 32 days after NaCl loading, control 1
  Number of animals suffering from C.A.: 0
[3]; ISI 3.0 mg/kg, 33 days after NaCl loading, control 1
  Number of animals suffering from C.A.: 1
[3]; ISI 3.0 mg/kg, 34 days after NaCl loading, control 1
  Number of animals suffering from C.A.: 0
[3]; ISI 3.0 mg/kg, 37 days after NaCl loading, control 0
  Number of animals suffering from C.A.: 2
[3]; ISI 3.0 mg/kg, 39 days after NaCl loading, control 1
  Number of animals suffering from C.A.: 0
[3]; ISI 3.0 mg/kg, 40 days after NaCl loading, control 1
  Number of animals suffering from C.A.: 0
[3]; ISI 3.0 mg/kg, 41 days after NaCl loading, control 0
  Number of animals suffering from C.A.: 1
[3]; ISI 3.0 mg/kg, 42 days after NaCl loading, control 2
  Number of animals suffering from C.A.: 0
[3]; oral ISI twice a day, Mann-Whitrey's U-test
  effect of ISI against cerebral apoplexy (significance versus control): 5% significant difference
[4]; intravenous, read-out: Acute toxicity LD50, intravenous
  LD50: 350 mg/kg
[4]; oral, read-out: Acute toxicity LD50, oral
  LD50: ≥ 10000 mg/kg
